Source: patent US5427766A, “Radiolabeled steroids for use in radiochemical-guided surgery” (priority 1993, dated 1995)

What was measured:
[1] = In vivo localization (biodistribution) in athymic female nude mice bearing subcutaneous MCF-7 tumor xenografts; parameters: species or system athymic female NCR-Nu Mice; conditions: mouse, sc, tail vein, subcutaneous MCF-7, mean, n = 5; for tissue uptake: 10-12 hours
Procedure: (§1) In vivo localization of 11β-ethyl-17α-(Z)-[^125 I](iodovinyl)estra-3,17β-diol (5) and a control compound 16α-[^125 I]iodovinyl-3,17β-estradiol (commercially available from DuPont New England Nuclear, MA) was determined in athymic female NCR-Nu Mice (purchased from Simonsen Laboratories, Gilroy, Calif.) bearing subcutaneous MCF-7(ER+) breast tumor xenografts. Prior to injection of the compounds, the mice were each implanted with fragments of MCF-7 breast tumor (approximately 2 cubic millimeters) in the subcutis of the left flank. At approximately the same time, a 1.7 mg estradiol pellet (Innovative Research of America, Toledo, Ohio) was implanted in the scapular region. The tumors were allowed to grow until they reached between 50 and 200 mg by visual inspection (approximately four to five weeks) prior to injection of the test compounds. One day prior to injection of the test compounds, the estradiol pellet was removed.
(§2) The mice were each injected via tail vein with between 3 (1.1×10^5 Bq) and 6 μCi ([…]) ^125 I in approximately 50 μL of phosphate buffered saline. The mice were sacrificed at various time intervals. After exsanguination, the selected organ/tissue were excised, weighed and radioactivity measured in a gamma counter. The counts per minute (cpm) of 125I in each tissue was determined and expressed as cpm per gram of tissue per injected dose multiplied by 100 (percent injected dose/gram).

[2] = In vivo localization (biodistribution) in athymic female nude mice bearing intraperitoneal MCF-7 tumors; parameters: species or system athymic female NCR-Nu Mice; conditions: mouse, in vivo, ip; for tissue uptake: 10-12 hours
Procedure: as §1, §2
The procedure of Example 3 was followed except each mouse was inoculated intraperitoneally with MCF-7 breast carcinoma cell line (7.5×10^6 cell/50 μL) rather than implanted subcutaneously with MCF-7 breast tumor. One day prior to this procedure, a 1.7 mg estradiol pellet was implanted subcutaneously in the scapular region. The tumor cells were allowed to form solid tumor nodules for 4 to 6 weeks prior to injection of the test compounds.

[3] = mcf-7 tumor, Tumor, read-out: Percent Injected Dose/Gram, tumor
[4] = Blood, read-out: Percent Injected Dose/Gram, blood
[5] = Fat, read-out: Percent Injected Dose/Gram, fat
[6] = Kidney, read-out: Percent Injected Dose/Gram, kidney
[7] = Liver, read-out: Percent Injected Dose/Gram, liver
[8] = Muscle, read-out: Percent Injected Dose/Gram, muscle
[9] = Spleen, read-out: Percent Injected Dose/Gram, spleen
[10] = uterus, Uteri, read-out: Percent Injected Dose/Gram, uteri
[11] = Percent Injected Dose/Gram, kidney
[12] = Percent Injected Dose/Gram, liver
[13] = Percent Injected Dose/Gram, muscle
[14] = Percent Injected Dose/Gram, spleen
[15] = Percent Injected Dose/Gram, tumor

CC[C@H]1C[C@@]2(C)[C@@H](CC[C@@]2(O)/C=C\[125I])[C@@H]2CCc3cc(O)ccc3[C@@H]12 [Compound 5, 11β-ethyl-17α-(Z)-[^125 I](iodovinyl)estra-3,17β-diol]
tissue uptake [1, 3]: 0.83 %ID/g
tissue uptake at 2 h [1, 3]: 1.15 %ID/g
tissue uptake at 6 h [1, 3]: 1.1 %ID/g
tissue uptake at 24 h [1, 3]: 0.55 %ID/g
tissue uptake at 48 h [1, 3]: 0.36 %ID/g
tissue uptake [1, 4]: 0.37 %ID/g
tissue uptake at 2 h [1, 4]: 1.11 %ID/g
tissue uptake at 6 h [1, 4]: 1.06 %ID/g
tissue uptake at 24 h [1, 4]: 0.09 %ID/g
tissue uptake at 48 h [1, 4]: 0.03 %ID/g
tissue uptake [1, 5]: 0.82 %ID/g
tissue uptake at 2 h [1, 5]: 2.18 %ID/g
tissue uptake at 6 h [1, 5]: 1.72 %ID/g
tissue uptake at 24 h [1, 5]: 0.14 %ID/g
tissue uptake [1, 6]: 0.45 %ID/g
tissue uptake at 2 h [1, 6]: 1.24 %ID/g
tissue uptake at 6 h [1, 6]: 1.01 %ID/g
tissue uptake at 24 h [1, 6]: 0.1 %ID/g
tissue uptake at 48 h [1, 6]: 0.02 %ID/g
tissue uptake [1, 7]: 2.39 %ID/g
tissue uptake at 2 h [1, 7]: 5.61 %ID/g
tissue uptake at 6 h [1, 7]: 5.34 %ID/g
tissue uptake at 24 h [1, 7]: 0.87 %ID/g
tissue uptake at 48 h [1, 7]: 0.36 %ID/g
tissue uptake [1, 8]: 0.09 %ID/g
tissue uptake at 2 h [1, 8]: 0.56 %ID/g
tissue uptake at 6 h [1, 8]: 0.33 %ID/g
tissue uptake [1, 9]: 0.54 %ID/g
tissue uptake at 2 h [1, 9]: 1.26 %ID/g
tissue uptake at 6 h [1, 9]: 0.97 %ID/g
tissue uptake at 24 h [1, 9]: 0.18 %ID/g
tissue uptake at 48 h [1, 9]: 0.06 %ID/g
tissue uptake [1, 10]: 3.66 %ID/g
tissue uptake at 2 h [1, 10]: 4.66 %ID/g
tissue uptake at 6 h [1, 10]: 4.4 %ID/g
tissue uptake at 24 h [1, 10]: 1.95 %ID/g
tissue uptake at 48 h [1, 10]: 1.26 %ID/g
tissue uptake ([2]; Blood, tail vein, intraperitoneal MCF-7, mean, n = 5, read-out: Percent Injected Dose/Gram, blood): 0.61 %ID/g
tissue uptake at 2 h ([2]; Blood, 2 hours, tail vein, intraperitoneal MCF-7, mean, n = 5, read-out: Percent Injected Dose/Gram, blood): 2.07 %ID/g
tissue uptake at 6 h ([2]; Blood, 6 hours, tail vein, intraperitoneal MCF-7, mean, n = 5, read-out: Percent Injected Dose/Gram, blood): 0.88 %ID/g
tissue uptake ([2]; Fat, tail vein, intraperitoneal MCF-7, mean, n = 5, read-out: Percent Injected Dose/Gram, fat): 0.67 %ID/g
tissue uptake at 2 h ([2]; Fat, 2 hours, tail vein, intraperitoneal MCF-7, mean, n = 5, read-out: Percent Injected Dose/Gram, fat): 3.1 %ID/g
tissue uptake at 6 h ([2]; Fat, 6 hours, tail vein, intraperitoneal MCF-7, mean, n = 5, read-out: Percent Injected Dose/Gram, fat): 1.64 %ID/g
tissue uptake at 24 h ([2]; Fat, 24 hours, tail vein, intraperitoneal MCF-7, mean, n = 5, read-out: Percent Injected Dose/Gram, fat): 0.12 %ID/g
tissue uptake at 2 h [2, 11]: 2.08 %ID/g
tissue uptake at 6 h [2, 11]: 0.78 %ID/g
tissue uptake at 24 h [2, 11]: 0.13 %ID/g
tissue uptake at 48 h [2, 11]: 0.03 %ID/g
tissue uptake at 2 h [2, 12]: 8.26 %ID/g
tissue uptake at 6 h [2, 12]: 4.08 %ID/g
tissue uptake at 24 h [2, 12]: 1.14 %ID/g
tissue uptake at 48 h [2, 12]: 0.44 %ID/g
tissue uptake at 2 h [2, 13]: 0.69 %ID/g
tissue uptake at 6 h [2, 13]: 0.31 %ID/g
tissue uptake at 2 h [2, 14]: 1.72 %ID/g
tissue uptake at 6 h [2, 14]: 0.86 %ID/g
tissue uptake at 24 h [2, 14]: 0.16 %ID/g
tissue uptake at 48 h [2, 14]: 0.06 %ID/g
tissue uptake at 2 h [2, 15]: 2.33 %ID/g
tissue uptake at 6 h [2, 15]: 1.6 %ID/g
tissue uptake at 24 h [2, 15]: 1.07 %ID/g
tissue uptake at 48 h [2, 15]: 0.76 %ID/g
tissue uptake ([2]; Uteri, tail vein, intraperitoneal MCF-7, mean, n = 5, read-out: Percent Injected Dose/Gram, uteri): 3.95 %ID/g
tissue uptake at 2 h ([2]; Uteri, 2 hours, tail vein, intraperitoneal MCF-7, mean, n = 5, read-out: Percent Injected Dose/Gram, uteri): 6.47 %ID/g
tissue uptake at 6 h ([2]; Uteri, 6 hours, tail vein, intraperitoneal MCF-7, mean, n = 5, read-out: Percent Injected Dose/Gram, uteri): 4.43 %ID/g
tissue uptake at 24 h ([2]; Uteri, 24 hours, tail vein, intraperitoneal MCF-7, mean, n = 5, read-out: Percent Injected Dose/Gram, uteri): 3.35 %ID/g
tissue uptake at 48 h ([2]; Uteri, 48 hours, tail vein, intraperitoneal MCF-7, mean, n = 5, read-out: Percent Injected Dose/Gram, uteri): 1.62 %ID/g
